Test results published in ChEMBL document CHEMBL1201862, “PubChem BioAssay data set” (2004).
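Briefly, cells in 96-well plates were exposed to five compound concentrations for 48 h, and endpoints were estimated by linear interpolation. GI50 marks 50% less growth.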 The source made the active and inactive calls. No stated cut-off is given here; in the data, active = GI50 up to about 1.1 µM and inactive = higher.

Experiments:
Assay in all cases: NCI anticancer screen, dose series, 48 h
[1] = test system: SF-268
[2] = test system: SR
[3] = test system: HL-60
[4] = test system: HT-29
[5] = test system: U-251
[6] = test system: HCT-15
[7] = test system: NCI-H23
[8] = test system: SF-539
[9] = test system: LOX IMVI
[10] = test system: SW-620
[11] = test system: A498
[12] = test system: EKVX
[13] = test system: UACC-257
[14] = test system: Malme-3M
[15] = test system: SN12C
[16] = test system: HCC 2998
[17] = test system: SK-OV-3
[18] = test system: KM12

## Cc1ccc(/N=N/c2c(-c3ccccc3)nn(C(=O)CC(=O)Nc3ccc(Cl)cc3)c2-c2ccccc2)cc1
[1]
  GI50: 70.5 µM (inactive)
[2]
  GI50: 12.3 µM (inactive)
[3]
  GI50: 32.4 µM (inactive)
[4]
  GI50: 65.3 µM (inactive)
[5]
  GI50: 40 µM (inactive)
[6]
  GI50: 56.4 µM
[7]
  GI50: 44.2 µM (inactive)
[8]
  GI50: 58.9 µM (inactive)
[9]
  GI50: 46.7 µM (inactive)
[10]
  GI50: 90.8 µM (inactive)
[11]
  GI50: 31.8 µM (inactive)
[12]
  GI50: 2.3 µM (inactive)
[13]
  GI50: > 100 µM (inactive)
[14]
  GI50: 83.6 µM (inactive)
[15]
  GI50: > 100 µM (inactive)
[16]
  GI50: 56.1 µM (inactive)
[17]
  GI50: > 100 µM (inactive)
[18]
  GI50: 38.3 µM (inactive)

## C=CC(OCC)(OCC)OCC
[1]
  GI50: > 100 µM (inactive)
[2]
  GI50: 29.9 µM (inactive)
[3]
  GI50: > 100 µM (inactive)
[4]
  GI50: > 100 µM (inactive)
[5]
  GI50: > 100 µM (inactive)
[6]
  GI50: 53.1 µM
[7]
  GI50: > 100 µM (inactive)
[8]
  GI50: > 100 µM (inactive)
[9]
  GI50: 66.2 µM (inactive)
[11]
  GI50: > 100 µM (inactive)
[12]
  GI50: > 100 µM (inactive)
[13]
  GI50: > 100 µM (inactive)
[14]
  GI50: > 100 µM (inactive)
[15]
  GI50: > 100 µM (inactive)
[16]
  GI50: > 100 µM (inactive)
[17]
  GI50: > 100 µM (inactive)
[18]
  GI50: > 100 µM (inactive)

## COC(=O)C1Cc2c(n(C)c3ccccc23)C(c2ccccc2)N1 (configuration not stated)
[1]
  GI50: > 100 µM (inactive)
[2]
  GI50: 67.9 µM (inactive)
[3]
  GI50: 10.1 µM (inactive)
[4]
  GI50: 18.9 µM (inactive)
[5]
  GI50: 48 µM (inactive)
[6]
  GI50: 14.2 µM
[7]
  GI50: > 100 µM (inactive)
[8]
  GI50: > 10 µM (inactive)
[9]
  GI50: 78.7 µM (inactive)
[10]
  GI50: > 100 µM (inactive)
[11]
  GI50: 48.4 µM (inactive)
[12]
  GI50: 92.3 µM (inactive)
[13]
  GI50: 15.2 µM (inactive)
[14]
  GI50: > 100 µM (inactive)
[15]
  GI50: > 100 µM (inactive)
[16]
  GI50: 49.4 µM (inactive)
[17]
  GI50: > 100 µM (inactive)
[18]
  GI50: > 100 µM (inactive)

## O=C1c2ccccc2C(=O)c2sc(Nc3cccc(Cl)c3)nc21
[1]
  GI50: 2.01 µM (inactive)
[2]
  GI50: 2.34 µM (inactive)
[3]
  GI50: 0.172 µM (active)
[4]
  GI50: 3.34 µM (inactive)
[5]
  GI50: 1.31 µM (inactive)
[6]
  GI50: 1.88 µM
[7]
  GI50: 1.49 µM (inactive)
[8]
  GI50: 1.93 µM (inactive)
[9]
  GI50: 1.27 µM (inactive)
[10]
  GI50: 0.802 µM (active)
[11]
  GI50: 2.07 µM (inactive)
[12]
  GI50: 2.38 µM (inactive)
[13]
  GI50: 1.52 µM (inactive)
[14]
  GI50: 1.52 µM (inactive)
[15]
  GI50: 1.51 µM (inactive)
[16]
  GI50: 2.75 µM (inactive)
[17]
  GI50: 8.11 µM (inactive)
[18]
  GI50: 2.03 µM (inactive)

## CCN(CC)[C@@H]1c2cc3c(cc2C(c2cc(OC)c(O)c(OC)c2)C2C(=O)CO[C@@H]21)OCO3 (some centres not stated)
[1]
  GI50: > 100 µM (inactive)
[2]
  GI50: > 100 µM (inactive)
[3]
  GI50: > 100 µM (inactive)
[4]
  GI50: > 100 µM (inactive)
[5]
  GI50: > 100 µM (inactive)
[6]
  GI50: > 100 µM
[7]
  GI50: > 100 µM (inactive)
[8]
  GI50: > 100 µM (inactive)
[9]
  GI50: > 100 µM (inactive)
[10]
  GI50: > 100 µM (inactive)
[11]
  GI50: > 100 µM (inactive)
[12]
  GI50: > 100 µM (inactive)
[13]
  GI50: > 100 µM (inactive)
[14]
  GI50: > 100 µM (inactive)
[15]
  GI50: > 100 µM (inactive)
[16]
  GI50: > 100 µM (inactive)
[17]
  GI50: > 100 µM (inactive)
[18]
  GI50: > 100 µM (inactive)

## C=C1CC[C@@H]2C(C)(C)CCC[C@@]2(C)[C@@H]1Cc1cc(O)ccc1O
[1]
  GI50: 3.38 µM (inactive)
[2]
  GI50: 2.42 µM (inactive)
[3]
  GI50: 1.53 µM (inactive)
[4]
  GI50: 16.5 µM (inactive)
[5]
  GI50: 3.72 µM (inactive)
[6]
  GI50: 3.09 µM
[7]
  GI50: 5.97 µM (inactive)
[8]
  GI50: 1.93 µM (inactive)
[9]
  GI50: 2.16 µM (inactive)
[10]
  GI50: 8.43 µM (inactive)
[11]
  GI50: 13.7 µM (inactive)
[12]
  GI50: 4.65 µM (inactive)
[13]
  GI50: 1.93 µM (inactive)
[14]
  GI50: 5.25 µM (inactive)
[15]
  GI50: 4.27 µM (inactive)
[16]
  GI50: 13.8 µM (inactive)
[17]
  GI50: 2.3 µM (inactive)
[18]
  GI50: 6.18 µM (inactive)
